Consider two molecules from US6603023B2 (priority 1996, dated 2003).

Where two headings read alike, the source gives them in different places.

The conditions of the data set: ester bond.

Regarding `C/C(=C\c1csc(C)n1)[C@@H]1C/C=C\CCCC[C@H](O[Si](C)(C)C(C)(C)C)[C@@H](C)C(=O)C(C)(C)[C@@H](O[Si](C)(C)C(C)(C)C)CC(=O)O1`, the ring closure, yield of all isomers (from C/C(=C\c1csc(C)n1)[C@@H](O)C/C=C\CCCC[C@H](O[Si](C)(C)C(C)(C)C)[C@@H](C)C(=O)C(C)(C)[C@H](CC(=O)O)O[Si](C)(C)C(C)(C)C, DCC/DMAP/DMAP.HCl, CHCl3, 0.32 mM, 80.0 °C, 20.0 h) came out at 75%.

Consider `CC[Si](CC)(CC)O[C@H]1CC(=O)O[C@H](/C(C)=C/c2csc(C)n2)C/C=C(/C)CCC[C@H](C)[C@H](OC(=O)OCC(Cl)(Cl)Cl)[C@@H](C)C(=O)C1(C)C`, for which the ring closure, yield of all isomers runs as follows: (from CC[Si](CC)(CC)O[C@@H](CC(=O)O)C(C)(C)C(=O)[C@H](C)[C@@H](OC(=O)OCC(Cl)(Cl)Cl)[C@@H](C)CCC/C(C)=C\C[C@H](O)/C(C)=C/c1csc(C)n1, 2,4,6-trichlorobenzoyl chloride / Et3N / DMAP, toluene, 0.79 mM, 25.0 °C, 3.5 h) 78%; (from CC[Si](CC)(CC)O[C@@H](CC(=O)O)C(C)(C)C(=O)[C@H](C)[C@@H](OC(=O)OCC(Cl)(Cl)Cl)[C@@H](C)CCC/C(C)=C\C[C@H](O)/C(C)=C/c1csc(C)n1, 2,4,6-trichlorobenzoyl chloride/Et3N/DMAP, toluene, 1.32 mM, 25.0 °C, 3.75 h) 78%.
